According to patent publication US20250188084A1, “COMPOUNDS AND METHODS FOR MODULATING CDK9 ACTIVITY” (KRONOS BIO, INC., priority 2020, published 2025):

biological target: T1, CDK9 (Homo sapiens, UniProt P50750); experiment: CDK9 degradation by HiBit assay, NCIH211 cells; assay type: cell-based; settings: NCIH211 cells with endogenously tagged N-terminal CDK9-HiBit, 24 hours incubation; read-out: HiBit-NCIH211.2 DC50
T1 construct: NCIH211 cells with endogenously tagged N-terminal CDK9-HiBit; endogenous in cells; host or cells: NCIH211 cells (endogenous CDK9 locus tagged with HiBit)
Procedure: Exemplary compounds of the invention were tested for degradation of CDK9. The compounds were tested in 10-dose DC50 duplicate mode with a 3-fold serial dilution starting at 10 μM by HiBit assay (Promega, Inc) as a direct measurement of CDK9 presence, with incubation time of 24 hours using either NCIH211 cells with endogenously tagged N-terminal CDK9-HiBit or NCIH1048 cells with endogenously tagged N-terminal CDK9-HiBit. A control compound (THAL-SNS-032, CAS 2139287-33-3) was tested in 10-dose DC50 mode with 3-fold serial dilution starting at 10 μM. Data was normalized to positive (medium only) and negative (cells with no treatment) controls and curve fits were analyzed with CDK9 as % response vs. log [compound concentration] using a 4-parameter logistic model by GraphPad software. For Table 2: A is <100, B is <1000 C is <10,000, D is >10,000 and ND is Not Determined.

T1 sequence (P50750 whole entry): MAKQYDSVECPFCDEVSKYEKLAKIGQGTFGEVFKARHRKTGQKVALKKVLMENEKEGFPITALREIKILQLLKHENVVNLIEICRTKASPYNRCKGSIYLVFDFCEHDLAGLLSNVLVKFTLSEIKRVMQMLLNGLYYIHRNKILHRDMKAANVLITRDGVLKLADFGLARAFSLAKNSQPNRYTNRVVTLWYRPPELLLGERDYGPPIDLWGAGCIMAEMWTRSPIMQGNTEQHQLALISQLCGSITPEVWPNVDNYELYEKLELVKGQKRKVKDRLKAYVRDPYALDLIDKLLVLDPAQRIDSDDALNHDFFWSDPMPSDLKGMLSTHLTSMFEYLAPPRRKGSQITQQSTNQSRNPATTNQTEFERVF
T1 sequence (O60563 whole entry partner): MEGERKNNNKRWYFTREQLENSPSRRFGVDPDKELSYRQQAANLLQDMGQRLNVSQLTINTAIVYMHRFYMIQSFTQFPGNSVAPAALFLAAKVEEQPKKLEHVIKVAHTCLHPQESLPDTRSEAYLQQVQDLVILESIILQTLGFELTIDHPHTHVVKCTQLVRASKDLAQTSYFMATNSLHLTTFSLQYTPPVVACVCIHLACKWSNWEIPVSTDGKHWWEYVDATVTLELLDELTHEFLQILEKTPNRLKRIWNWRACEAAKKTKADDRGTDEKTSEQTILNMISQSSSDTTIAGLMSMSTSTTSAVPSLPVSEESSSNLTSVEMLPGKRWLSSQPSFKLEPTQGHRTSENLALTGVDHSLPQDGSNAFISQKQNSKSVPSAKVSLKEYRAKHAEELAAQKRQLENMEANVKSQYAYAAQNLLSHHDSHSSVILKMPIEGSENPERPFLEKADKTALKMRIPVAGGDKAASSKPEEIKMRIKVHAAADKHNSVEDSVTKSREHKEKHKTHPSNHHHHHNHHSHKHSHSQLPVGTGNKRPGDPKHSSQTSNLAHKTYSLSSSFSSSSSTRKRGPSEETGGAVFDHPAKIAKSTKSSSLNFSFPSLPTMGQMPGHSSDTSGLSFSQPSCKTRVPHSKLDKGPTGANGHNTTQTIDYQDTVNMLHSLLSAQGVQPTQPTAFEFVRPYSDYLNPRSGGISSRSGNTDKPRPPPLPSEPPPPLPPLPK

`CCC(CC)c1cc(N[C@H]2CC[C@H](NC(=O)COCCOCCNC(=O)COc3cccc4c3C(=O)N(C3CCC(=O)NC3=O)C4=O)C2)n2nccc2n1` (stereo partly drawn) [Compound 1.0, 2-[2-[2-[[2-[2-(2,6-dioxo-3-piperidyl)-1,3-dioxo-isoindolin-4 yl]oxyacetyl]amino]ethoxy]ethoxy]-N-[(1S,3S)-3-[[5-(1-ethylpropyl)pyrazolo[1,5-a]pyrimidin-7-yl]amino]cyclopentyl]acetamide] and `CCC(CC)c1cc(N[C@H]2CC[C@H](NC(=O)COCCOCCOCCNC(=O)COc3cccc4c3C(=O)N(C3CCC(=O)NC3=O)C4=O)C2)n2nccc2n1` (stereo partly drawn) [Compound 2.0, 2-[2-[2-[2-[[2-[2-(2,6-dioxo-3-piperidyl)-1,3-dioxo-isoindolin-4-yl]oxyacetyl]amino]ethoxy]ethoxy]ethoxy]-N-[(1S,3S)-3-[[5-(1-ethylpropyl)pyrazolo[1,5-a]pyrimidin-7-yl]amino]cyclopentyl]acetamide] cannot be ordered by DC50: greater than 10 µM for the first, greater than 10 µM for the second.

`CCC(CC)c1cc(N[C@H]2CC[C@H](NC(=O)COCCOCCOCCNC(=O)COc3cccc4c3C(=O)N(C3CCC(=O)NC3=O)C4=O)C2)n2ncc(Cl)c2n1` (stereo partly drawn) [Compound 3.0, N-[(1S,3S)-3-[[3-chloro-5-(1-ethylpropyl)pyrazolo[1,5-a]pyrimidin-7-yl]amino]cyclopentyl]-2-[2-[2-[2-[[2-[2-(2,6-dioxo-3-piperidyl)-1,3-dioxo-isoindolin-4-yl]oxyacetyl]amino]ethoxy]ethoxy]ethoxy]acetamide] and `CCC(CC)c1cc(N[C@H]2CC[C@H](NC(=O)COCCOCCNC(=O)COc3cccc4c3C(=O)N(C3CCC(=O)NC3=O)C4=O)C2)n2ncc(Cl)c2n1` (stereo partly drawn) [Compound 4.0, N-[(1S,3S)-3-[[3-chloro-5-(1-ethylpropyl)pyrazolo[1,5-a]pyrimi-din-7-yl]amino]cyclopentyl]-2-[2-[2-[[2-[2-(2,6-dioxo-3-piperidyl)-1,3-dioxo-isoindolin-4-yl]oxyacetyl]amino]ethoxy]ethoxy]acetamide] cannot be ordered by DC50: greater than 10 µM for the first, greater than 10 µM for the second.

`CCC(CC)c1cc(N[C@H]2CC[C@H](NCCOCCOCCOCCNc3cccc4c3C(=O)N(C3CCC(=O)NC3=O)C4=O)C2)n2nccc2n1` (stereo partly drawn) [Compound 7.0, 2-(2,6-dioxo-3-piperidyl)-4-[2-[2-[2-[2-[[(1S,3S)-3-[[5-(1-ethylpropyl)pyrazolo[1,5-a]pyrimidin-7-yl]amino]cyclopentyl]amino]ethoxy]ethoxy]ethoxy]ethylamino]isoindoline-1,3-dione] and `CCC(CC)c1cc(N[C@H]2CC[C@H](NCCOCCOCCOCCOCCNc3cccc4c3C(=O)N(C3CCC(=O)NC3=O)C4=O)C2)n2nccc2n1` (stereo partly drawn) [Compound 8.0, 2-(2,6-dioxo-3-piperidyl)-4-[2-[2-[2-[2-[2-[[(1S,3S)-3-[[5-(1-ethylpropyl)pyrazolo[1,5-a]pyrimidin-7-yl]amino]cyclopentyl]amino]ethoxy]ethoxy]ethoxy]ethoxy]ethylamino]isoindoline-1,3-dione] cannot be ordered by DC50: greater than 10 µM for the first, greater than 10 µM for the second.

`CCC(CC)c1cc(N[C@H]2CC[C@H](NCc3cn(CCOCCOCCNc4cccc5c4C(=O)N(C4CCC(=O)NC4=O)C5=O)nn3)C2)n2nccc2n1` (stereo partly drawn) [Compound 9.0, 2-(2,6-dioxo-3-piperidyl)-4-[2-[2-[2-[4-[[[(1S,3S)-3-[[5-(1-ethylpropyl)pyrazolo[1,5-a]pyrimidin-7-yl]amino]cyclopentyl]amino]methyl]triazol-1-yl]ethoxy]ethoxy]ethylamino]isoindoline-1,3-dione] and `CCC(CC)c1cc(N[C@H]2CC[C@H](NCc3cn(CCOCCOCCOCCNc4cccc5c4C(=O)N(C4CCC(=O)NC4=O)C5=O)nn3)C2)n2nccc2n1` (stereo partly drawn) [Compound 10.0, 2-(2,6-dioxo-3-piperidyl)-4-[2-[2-[2-[2-[4-[[[(1S,3S)-3-[[5-(1-ethylpropyl)pyrazolo[1,5-a]pyrimidin-7-yl]amino]cyclopentyl]amino]methyl]triazol-1-yl]ethoxy]ethoxy]ethoxy]ethylamino]isoindoline-1,3-dione] cannot be ordered by DC50: less than 10 µM for the first, less than 10 µM for the second.

`CCC(CC)c1cc(N[C@H]2CC[C@H](NCCOCCOCCOCCNc3cccc4c3C(=O)N(C3CCC(=O)NC3=O)C4=O)C2)n2ncc(Cl)c2n1` (stereo partly drawn) [Compound 11.0, 2-(2,6-dioxo-3-piperidyl)-4-[2-[2-[2-[2-[[(1S,3S)-3-[[3-chloro-5-(1-ethylpropyl)pyrazolo[1,5-a]pyrimidin-7-yl]amino]cyclopentyl]amino]ethoxy]ethoxy]ethoxy]ethylamino]isoindoline-1,3-dione] and `CCC(CC)c1cc(N[C@H]2CC[C@H](NCCOCCOCCOCCOCCNc3cccc4c3C(=O)N(C3CCC(=O)NC3=O)C4=O)C2)n2ncc(Cl)c2n1` (stereo partly drawn) [Compound 13.0, 4-[2-[2-[2-[2-[2-[[(1S,3S)-3-[[3-chloro-5-(1-ethylpropyl)pyrazolo[1,5-a]pyrimidin-7-yl]amino]cyclopentyl]amino]ethoxy]ethoxy]ethoxy]ethoxy]ethylamino]-2-(2,6-dioxo-3-piperidyl)isoindoline-1,3-dione] cannot be ordered by DC50: less than 10 µM for the first, less than 10 µM for the second.

`CCC(CC)c1cc(N[C@H]2CC[C@H](NCCOCCOCCOCCn3cc(CNc4cccc5c4C(=O)N(C4CCC(=O)NC4=O)C5=O)nn3)C2)n2nccc2n1` (stereo partly drawn) [Compound 12.0, 2-(2,6-dioxo-3-piperidyl)-4-[[1-[2-[2-[2-[2-[[(1S,3S)-3-[[5-(1-ethylpropyl)pyrazolo[1,5-a]pyrimidin-7-yl]amino]cyclopentyl]amino]ethoxy]ethoxy]ethoxy]ethyl]triazol-4-yl]methylamino]isoindoline-1,3-dione] and `CCC(CC)c1cc(N[C@H]2CC[C@H](NCCOCCOCCOCCn3cc(CNc4cccc5c4C(=O)N(C4CCC(=O)NC4=O)C5=O)nn3)C2)n2ncc(Cl)c2n1` (some centres unmarked) [Compound 16.0] cannot be ordered by DC50: greater than 10 µM for the first, greater than 10 µM for the second.

`CCC(CC)c1cc(N[C@H]2CC[C@H](NCCOCCOCCn3cc(COCCOCC(=O)N[C@H](C(=O)N4C[C@H](O)C[C@H]4C(=O)NCc4ccc(-c5scnc5C)cc4)C(C)(C)C)nn3)C2)n2nccc2n1` [Compound 14.0, (2S,4R)-4-hydroxy-N-[[4-(4-methylthiazol-5-yl)phenyl]methyl]-1-[(2S)-3,3-dimethyl-2-[[2-[2-[[1-[2-[2-[2-[[(1S,3S)-3-[[5-(1-ethylpropyl)pyrazolo[1,5-a]pyrimidin-7-yl]amino]cyclopentyl]amino]ethoxy]ethoxy]ethyl]triazol-4-yl]methoxy]ethoxy]acetyl]amino]butanoyl]pyrrolidine-2-carboxamide] and `CCC(CC)c1cc(N[C@H]2CC[C@H](NCC(=O)NCc3cn(CCOCCOCC(=O)N[C@H](C(=O)N4C[C@H](O)C[C@H]4C(=O)NCc4ccc(-c5scnc5C)cc4)C(C)(C)C)nn3)C2)n2nccc2n1` [Compound 26.0] cannot be ordered by DC50: greater than 10 µM for the first, greater than 10 µM for the second.

`CCC(CC)c1cc(N[C@H]2CC[C@H](NCCOCCOCCn3cc(CNc4cccc5c4C(=O)N(C4CCC(=O)NC4=O)C5=O)nn3)C2)n2ncc(Cl)c2n1` (some centres unmarked) [Compound 15.0] and `CCC(CC)c1cc(N[C@H]2CC[C@H](NCC(=O)NCCCc3cn(CCOCCNc4cccc5c4C(=O)N(C4CCC(=O)NC4=O)C5=O)nn3)C2)n2ncc(Cl)c2n1` (some centres unmarked) [Compound 23.0] cannot be ordered by DC50: less than 10 µM for the first, less than 10 µM for the second.

`CCC(CC)c1cc(N[C@H]2CC[C@H](NCC(C)N3CCN(CCNc4cccc5c4C(=O)N(C4CCC(=O)NC4=O)C5=O)CC3)C2)n2nccc2n1` (stereo partly drawn) [Compound 17.0, 2-(2,6-dioxo-3-piperidyl)-4-[2-[4-[2-[[(1S,3S)-3-[[5-(1-ethylpropyl)pyrazolo[1,5-a]pyrimidin-7-yl]amino]cyclopentyl]amino]-1-methyl-ethyl]piperazin-1-yl]ethylamino]isoindoline-1,3-dione] and `CCC(CC)c1cc(N[C@H]2CC[C@H](NCCN3CCN(CCNc4cccc5c4C(=O)N(C4CCC(=O)NC4=O)C5=O)CC3)C2)n2nccc2n1` (stereo partly drawn) [Compound 19.0, 2-(2,6-dioxo-3-piperidyl)-4-[2-[4-[2-[[(1S,3S)-3-[[5-(1-ethylpropyl)pyrazolo[1,5-a]pyrimidin-7-yl]amino]cyclopentyl]amino]ethyl]piperazin-1-yl]ethylamino]isoindoline-1,3-dione] cannot be ordered by DC50: less than 10 µM for the first, less than 10 µM for the second.

`CCC(CC)c1cc(N[C@H]2CC[C@H](NCCN3CCN(CCOCC(=O)N[C@H](C(=O)N4C[C@H](O)C[C@H]4C(=O)NCc4ccc(-c5scnc5C)cc4)C(C)(C)C)CC3)C2)n2nccc2n1` [Compound 18.0, (2S,4R)-1-[(2S)-2-[[2-[2-[4-[2-[[(1S,3S)-3-[[5-(1-ethylpropyl)pyrazolo[1,5-a]pyrimidin-7-yl]amino]cyclopentyl]amino]ethyl]piperazin-1-yl]ethoxy]acetyl]amino]-3,3-dimethyl-butanoyl]-4-hydroxy-N-[[4-(4-methylthiazol-5-yl)phenyl]methyl]pyrrolidine-2-carboxamide] and `CCC(CC)c1cc(N[C@H]2CC[C@H](NCC(=O)NCc3cn(CCOCC(=O)N[C@H](C(=O)N4C[C@H](O)C[C@H]4C(=O)NCc4ccc(-c5scnc5C)cc4)C(C)(C)C)nn3)C2)n2nccc2n1` [Compound 25.0] cannot be ordered by DC50: greater than 10 µM for the first, greater than 10 µM for the second.

`CCC(CC)c1cc(N[C@H]2CC[C@H](NCC(=O)NCCCn3cc(CCOCCNc4cccc5c4C(=O)N(C4CCC(=O)NC4=O)C5=O)nn3)C2)n2nccc2n1` (some centres unmarked) [Compound 20.0] and `CCC(CC)c1cc(N[C@H]2CC[C@H](NCC(=O)NCCCc3cn(CCOCCNc4cccc5c4C(=O)N(C4CCC(=O)NC4=O)C5=O)nn3)C2)n2nccc2n1` (some centres unmarked) [Compound 22.0] cannot be ordered by DC50: greater than 10 µM for the first, greater than 10 µM for the second.

`CCC(CC)c1cc(N[C@H]2CC[C@H](NCC(=O)NCCCn3cc(CCOCCNc4cccc5c4C(=O)N(C4CCC(=O)NC4=O)C5=O)nn3)C2)n2ncc(Cl)c2n1` (some centres unmarked) [Compound 24.0] was tested, and the DC50 was less than 1 µM.
